The target of the experiment is T1, human κ opioid receptors (Homo sapiens, UniProt P41145).
T1 construct: host or cells: CHO cells
Description: Opioid receptor function test (Lance Ultra cAMP kit, agonist activity). The experiment is classed as cell-based. Conditions: CHO cells expressing human κ opioid receptors, 10 μM forskolin, 30 minutes. As for the experimental part: Opioid Receptor Function Test
The function activity of the compound of the present invention on κ opioid receptors was examined.
Method: Using a Lance Ultra cAMP kit (Perkin Elmer), the examination was performed according to a predetermined method. In evaluation of agonist activity, CHO cells expressing human κ opioid receptors (Catalog No. CT6606, accession No. NM_000912) and a test compound were reacted in an assay buffer (1×HSS, 5 mM HEPES, pH 7.4, 0.5 mM IBMX (isobutylmethyixanthine), 0.1% SA) in the presence of 10 μM forskolin for 30 minutes. Subsequently, a cAMP detection reagent in the kit was added. One hour later, time-resolved fluorescence measurement was performed using an EnVision plate reader (Perkin Elmer). The evaluation of the test compound was performed in a concentration range of 10^−14 to 10^−7 M for the κ opioid receptor function test.

T1 sequence (P41145 whole entry): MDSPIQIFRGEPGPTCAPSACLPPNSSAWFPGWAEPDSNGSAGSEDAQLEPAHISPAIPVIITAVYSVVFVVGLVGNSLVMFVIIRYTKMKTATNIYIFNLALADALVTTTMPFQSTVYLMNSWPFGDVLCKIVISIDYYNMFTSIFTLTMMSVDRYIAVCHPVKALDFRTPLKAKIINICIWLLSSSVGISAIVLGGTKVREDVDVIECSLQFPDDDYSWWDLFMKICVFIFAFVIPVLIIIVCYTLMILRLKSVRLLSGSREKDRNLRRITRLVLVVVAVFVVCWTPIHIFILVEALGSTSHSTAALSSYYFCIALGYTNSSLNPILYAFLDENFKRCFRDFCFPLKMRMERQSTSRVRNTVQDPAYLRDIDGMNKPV

In general, EC50 refers to the midpoint of the concentration-response curve. As for `Cc1cnn(CCN2CC[C@]34CCN(CC5CC5)[C@H](Cc5ccc(O[C@@H]6O[C@H](C(=O)O)[C@@H](O)C(O)[C@H]6O)cc53)[C@]4(O)CC2)c1` (stereo partly drawn) [Example 246, (2S,3S,5R,6S)-6-(((5aS,6R,11bS)-14-(cyclopropylmethyl)-5a-hydroxy-3-(2-(4-methyl-1H-pyrazol-1-yl)ethyl)-1,2,3,4,5,5a,6,7-octahydro-6,11b-(epiminoethano)naphtho[1,2-d]azepin-10-yl)oxy)-3,4,5-trihydroxytetrahydro-2H-pyran-2-carboxylic acid], the 50% effective concentration (EC50) is 2.6 nM.

Molecule `Cc1cc(CCC(=O)N2CC[C@]34CCN(CC5CC5)[C@H](Cc5ccc(O)cc53)[C@]4(O)CC2)ns1` [Example 217, 1-((5aS,6R,11bR)-14-(cyclopropylmethyl)-5a,10-dihydroxy-1,2,5,5a,6,7-hexahydro-6,11b-(epiminoethano)naphtho[1,2-d]azepin-3(4H)-yl)-3-(5-methylisothiazol-3-yl)propan-1-one] had an EC50 of 0.18 nM. This EC50 is about 14-fold lower than that of the molecule before. In the case of `Oc1ccc2c(c1)[C@@]13CCN(CCc4nc5ccccc5s4)CC[C@@]1(O)[C@@H](C2)N(CC1CC1)CC3` [Example 128, (5aS,6R,11bS)-3-(2-(benzo[d]thiazol-2-yl)ethyl)-14-(cyclopropylmethyl)-2,3,4,5,6,7-hexahydro-6,11b-(epiminoethano)naphtho[1,2-d]azepine-5a,10(1H)-diol] it was 0.1 nM. In the case of `O=C(CN1CCC(F)(F)C1)N1CC[C@]23CCN(CC4CC4)[C@H](Cc4ccc(O)cc42)[C@]3(O)CC1` [Example 181, 1-((5aS,6R,11bR)-14-(cyclopropylmethyl)-5a,10-dihydroxy-1,2,5,5a,6,7-hexahydro-6,11b-(epiminoethano)naphtho[1,2-d]azepin-3(4H)-yl)-2-(3,3-difluoropyrrolidin-1-yl)ethan-1-one] it was 0.32 nM; in that of `O=C(Cc1cscn1)N1CC[C@]23CCN(CC4CC4)[C@H](Cc4ccc(O)cc42)[C@]3(O)CC1` [Example 33, 1-((5aS,6R,11bR)-14-(cyclopropylmethyl)-5a,10-dihydroxy-1,2,5,5a,6,7-hexahydro-6,11b-(epiminoethano)naphtho[1,2-d]azepin-3(4H)-yl)-2-(thiazol-4-yl)ethan-1-one], 0.92 nM; in that of `O=C(Cc1cc2ccccn2n1)N1CC[C@]23CCN(CC4CC4)[C@H](Cc4ccc(O)cc42)[C@]3(O)CC1` [Example 117, 1-((5aS,6R,11bR)-14-(cyclopropylmethyl)-5a,10-dihydroxy-1,2,5,5a,6,7-hexahydro-6,11b-(epiminoethano)naphtho[1,2-d]azepin-3(4H)-yl)-2-(pyrazolo[1,5-a]pyridin-2-yl)ethan-1-one], 0.4 nM. In the case of `Oc1ccc2c(c1)[C@@]13CCN(CCc4cc5ccccc5cn4)CC[C@@]1(O)[C@@H](C2)N(CC1CC1)CC3` [Example 123, (5aS,6R,11bS)-14-(cyclopropylmethyl)-3-(2-(isoquinolin-3-yl)ethyl)-2,3,4,5,6,7-hexahydro-6,11b-(epiminoethano)naphtho[1,2-d]azepine-5a,10(1H)-diol] it was 0.064 nM; in that of `Cc1cnn([C@H]2CC[C@@H](N3CC[C@]45CCN(CC6CC6)[C@H](Cc6ccc(O)cc64)[C@]5(O)CC3)C2)c1` [Example 236, (5aS,6R,11bS)-14-(cyclopropylmethyl)-3-((1R,3S)-3-(4-methyl-1H-pyrazol-1-yl)cyclopentyl)-2,3,4,5,6,7-hexahydro-6,11b-(epiminoethano)naphtho[1,2-d]azepine-5a,10(1H)-diol], 0.012 nM; in that of `O=C(Cc1n[nH]c2ccccc12)N1CC[C@]23CCN(CC4CC4)[C@H](Cc4ccc(O)cc42)[C@]3(O)CC1` [Example 114, 1-((5aS,6R,11bR)-14-(cyclopropylmethyl)-5a,10-dihydroxy-1,2,5,5a,6,7-hexahydro-6,11b-(epiminoethano)naphtho[1,2-d]azepin-3(4H)-yl)-2-(1H-indazol-3-yl)ethan-1-one], 0.043 nM. Consider `Oc1ccc2c(c1)[C@@]13CCN(CCCc4ccccn4)CC[C@@]1(O)[C@@H](C2)N(CC1CC1)CC3` [Example 69, (5aS,6R,11bS)-14-(cyclopropylmethyl)-3-(3-(pyridin-2-yl)propyl)-2,3,4,5,6,7-hexahydro-6,11b-(epiminoethano)naphtho[1,2-d]azepine-5a,10(1H)-diol], for which the EC50 came out at 0.28 nM. This EC50 is about 6.5-fold higher than that of the molecule before. For `Oc1ccc2c(c1)[C@@]13CCN(CCc4cc5ccccn5n4)CC[C@@]1(O)[C@@H](C2)N(CC1CC1)CC3` [Example 118, (5aS,6R,11bS)-14-(cyclopropylmethyl)-3-(2-(pyrazolo[1,5-a]pyridin-2-yl)ethyl)-2,3,4,5,6,7-hexahydro-6,11b-(epiminoethano)naphtho[1,2-d]azepine-5a,10(1H)-diol], the response was half-maximal at 0.016 nM (EC50). The result for `Oc1ccc2c(c1)[C@@]13CCN(CCc4cccc(C(F)(F)F)n4)CC[C@@]1(O)[C@@H](C2)N(CC1CC1)CC3` [Example 88, (5aS,6R,11bS)-14-(cyclopropylmethyl)-3-(2-(6-(trifluoromethyl)pyridin-2-yl)ethyl)-2,3,4,5,6,7-hexahydro-6,11b-(epiminoethano)naphtho[1,2-d]azepine-5a,10(1H)-diol] reads 0.75 nM; that for `Cc1cnn(CCN2CC[C@]34CCN(CC5CC5)[C@H](Cc5ccc(OC(=O)C(C)(C)C)cc53)[C@]4(O)CC2)c1` [Example 238, (5aS,6R,11bS)-14-(cyclopropylmethyl)-5a-hydroxy-3-(2-(4-methyl-1H-pyrazol-1-yl)ethyl)-1,2,3,4,5,5a,6,7-octahydro-6,11b-(epiminoethano)naphtho[1,2-d]azepin-10-yl pivalate], 0.45 nM.

Molecule `Cc1cnn(CCC(=O)N2CC[C@]34CCN(CC5CC5)[C@H](Cc5ccc(O)cc53)[C@]4(O)CC2)c1` [Example 220, 1-((5aS,6R,11bR)-14-(cyclopropylmethyl)-5a,10-dihydroxy-1,2,5,5a,6,7-hexahydro-6,11b-(epiminoethano)naphtho[1,2-d]azepin-3(4H)-yl)-3-(4-methyl-1H-pyrazol-1-yl)propan-1-one] came in with a concentration for a half-maximal effect (EC50) of 0.26 nM. In the case of `Cc1cnn(C2CC(N3CC[C@]45CCN(CC6CC6)[C@H](Cc6ccc(O)cc64)[C@]5(O)CC3)C2)c1` (single isomer, unassigned) [Example 227 (I)], the EC50 is 0.015 nM. Against the preceding molecule, the EC50 is about 17-fold lower.

On to `Oc1ccc2c(c1)[C@@]13CCN(CCn4ncc5ccccc54)CC[C@@]1(O)[C@@H](C2)N(CC1CC1)CC3` [Example 122, (5aS,6R,11bS)-3-(2-(1H-indazol-1-yl)ethyl)-14-(cyclopropylmethyl)-2,3,4,5,6,7-hexahydro-6,11b-(epiminoethano)naphtho[1,2-d]azepine-5a,10(1H)-diol], for which the EC50 was 0.15 nM.

`Oc1ccc2c(c1)[C@@]13CCN(CCc4n[nH]c5ccccc45)CC[C@@]1(O)[C@@H](C2)N(CC1CC1)CC3` [Example 112, (5aS,6R,11bS)-3-(2-(1H-indazol-3-yl)ethyl)-14-(cyclopropylmethyl)-2,3,4,5,6,7-hexahydro-6,11b-(epiminoethano)naphtho[1,2-d]azepine-5a,10(1H)-diol]: the EC50 came out at 0.037 nM. In turn, `CN(C)CC(=O)N1CC[C@]23CCN(CC4CC4)[C@H](Cc4ccc(O)cc42)[C@]3(O)CC1` [Example 198, 1-((5aS,6R,11bR)-14-(cyclopropylmethyl)-5a,10-dihydroxy-1,2,5,5a,6,7-hexahydro-6,11b-(epiminoethano)naphtho[1,2-d]azepin-3(4H)-yl)-2-(dimethylamino)ethan-1-one] displayed an EC50 of 0.59 nM.

Regarding `Cc1cc(C)n(CCN2CC[C@]34CCN(CC5CC5)[C@H](Cc5ccc(O)cc53)[C@]4(O)CC2)n1` [Example 56, (5aS,6R,11bS)-14-(cyclopropylmethyl)-3-(2-(3,5-dimethyl-1H-pyrazol-1-yl)ethyl)-2,3,4,5,6,7-hexahydro-6,11b-(epiminoethano)naphtho[1,2-d]azepine-5a,10(1H)-diol], the EC50 turned out to be 0.97 nM. In the case of `Cc1cnn(C[C@H](CO)N2CC[C@]34CCN(CC5CC5)[C@H](Cc5ccc(O)cc53)[C@]4(O)CC2)c1` [Example 232, (5aS,6R,11bS)-14-(cyclopropylmethyl)-3-((R)-1-hydroxy-3-(4-methyl-1H-pyrazol-1-yl)propan-2-yl)-2,3,4,5,6,7-hexahydro-6,11b-(epiminoethano)naphtho[1,2-d]azepine-5a,10(1H)-diol] it was 0.17 nM; in that of `Cc1cnn(CCN2CC[C@]34CCN(CC5CC5)[C@H](Cc5ccc(O)cc53)[C@]4(O)CC2C)c1` (stereo partly drawn) [Example 274, (5aS,6R,11bS)-14-(cyclopropylmethyl)-4-methyl-3-(2-(4-methyl-1H-pyrazol-1-yl)ethyl)-2,3,4,5,6,7-hexahydro-6,11b-(epiminoethano)naphtho[1,2-d]azepine-5a,10(1H)-diol], 0.07 nM; in that of `Oc1ccc2c(c1)[C@@]13CCN(CCn4nccn4)CC[C@@]1(O)[C@@H](C2)N(CC1CC1)CC3` [Example 66, (5aS,6R,11bS)-3-(2-(2H-1,2,3-triazol-2-yl)ethyl)-14-(cyclopropylmethyl)-2,3,4,5,6,7-hexahydro-6,11b-(epiminoethano)naphtho[1,2-d]azepine-5a,10(1H)-diol], 0.14 nM.

`Cc1cnn(C[C@@H](CO)N2CC[C@]34CCN(CC5CC5)[C@H](Cc5ccc(O)cc53)[C@]4(O)CC2)c1` [Example 234, (5aS,6R,11bS)-14-(cyclopropylmethyl)-3-((S)-1-hydroxy-3-(4-methyl-1H-pyrazol-1-yl)propan-2-yl)-2,3,4,5,6,7-hexahydro-6,11b-(epiminoethano)naphtho[1,2-d]azepine-5a,10(1H)-diol]: the half-maximal effective concentration (EC50) came out at 0.087 nM.

These data come from patent US20230087342A1, “AZEPANE DERIVATIVE” (Nippon Chemiphar Co., Ltd., priority 2019, published 2023).
